# Experimental data from patent US20210244712A1, “METHODS FOR TREATING PATIENTS WITH CANCER HAVING DEFECTS IN CYCLIN D REGULATION” (NysnoBio Ireland DAC, priority 2018, published 2021).
# What was measured:
# [1] = system: HCT-116 xenograft; assay: Subcutaneous HCT-116 xenograft model, tumor volume; assay type: in vivo, nude mice; settings: Groups 2-6 of Table 8 (Compound 42 1 and 5, Q3 5 and 15, F 25 mg/kg); IP daily for 20 days; 28 days; vs control
# Protocol: The efficacy of Compound 42, Compound F, and Compound Q3 were evaluated in the treatment of subcutaneous HCT-116 xenograft model in nude mice.
# Cell Culture: HCT-116 tumor cell lines were maintained in vitro as a monolayer culture in DMEM medium supplemented with 10% fetal bovine serum at 37° C. in an atmosphere of 5% CO2 in air. The tumor cells were routinely subcultured twice weekly by trypsin-EDTA treatment (0.05% Trypsin-EDTA) and 1:4 split: The cells in an exponential growth phase were harvested and counted for tumor inoculation.
# Tumor Inoculation: Each, mouse was inoculated subcutaneously at the flank region with HCT-1.16 cells (1.0×106) in 0.1 ml of 1×PBS mixed with Matrigel (1:1) for tumor development. The day Xenotransplantation was performed is denoted as day 0.
# Thirty (30) animals with approx 100-150 mm^3 tumors were selected for HCT-116 follow up experiment and randomly placed Into Groups 1, 2, […], 4, 5, and 6 as shown in Table 8.
# Group Assignment: Before grouping and treatment, all animals were weighed and fee tumor volumes were confirmed (100-150 mm^3) using electronic caliper. Since the tumor volume can affect fee effectiveness of any given treatment mice into groups using randomized block design as following: First the experimental animals were divided into homogeneous blocks based on their tumor volume. Secondly, within each block, randomization of experimental animals to different groups By using randomized block design to assign experimental animals, we ensure that each animal has the same probability of being assigned to any given treatment groups and therefore systematic error is minimized.
# (§1) Treatments were initiated when turner volume reached 100-150 mm^3. Treatments started on Day 5. Test compounds were administered intraperitoneally (II′) in 10 mg/mL solution comprising 10% N,N-dimethyl acetamide, 15% macrogol 15 hydroxy stearate, polyethylene glycol-15-hydroxystearate, and 75% aqueous hydroxypropyl-beta-cyclodextrin.
# (§2) Observation and data collection: After tumor cells inoculation, the animals were checked daily for morbidity and mortality. At the time of routine monitoring, the animals were checked for any adverse effects of tumor growth and treatments on normal behavior such as mobility, visual estimation of food and water consumption, body weight gain/loss, eye/hair matting and any other abnormal effects, Death and observed clinical signs were recorded, per […] IACUC. Tumor volumes were measured every 3-4 days in two dimensions using an electronic caliper, sad the volume data are expressed in, mm3 using the formula: V=0.5 a×b^2 where a and b are fee long and short diameters of the tumor, respectively. Dosing and tumor volume measurement procedures were conducted in a Laminar Flow Cabinet according to Altogen Labs IACUC regulations.
# Statistics: Summary statistics, the mean and the standard error of the mean (SEM), are provided for the tumor volume of each group at each time point. Statistical analysis of difference in tumor volume among the groups and the analysis of drug interaction were conducted on the data obtained after the final dose.
# [2] = HCT-116 xenograft model, body weight and adverse events; assay type: in vivo; settings: Groups 2-6 of Table 8; IP daily for 20 days
# Protocol: as §1, §2
# Body weight loss daring fee study: Sacrifice fee mouse when one measurement of body weight loss (BWL)>20% (only for control animals). Animal research associated wife this study was conducted under Altogen Labs IACUC regulatory space. Altogen Labs IACUC guidelines were followed in case of BWL and any other conditions.
# [3] = system: ubiquitinated proteins; assay: Mechanistic study: Ub (FK-2) western blot; assay type: cell-based; settings: ES-2; epoxomicin 60 nM; 18 hours
# Protocol: In order to establish that the decrease in Cyclin D seen after Compound 42 treatment is due to proteasomal degradation, ES-2, ovarian cancer cell line was treated with Compound 42 (250 nM) in the presence or absence of epoxomicin, a specific inhibitor of the proteasome (60 nM) for 18 hours. Following the treatment, western blotting for Cyclin D (FIG. 10A), Ub (FK-2) (FIG. 10B), and GAPDH control (bottom blot, below FIGS. 10A and 10B) was performed. Epoxomicin is a specific inhibitor of the proteasome.
# [4] = system: HCT-116; assay: Senescence quantification (SA-βGal), Example 6A; assay type: cell-based; settings: Compound 42 250 nM, Palbociclib 1 μM
# Protocol: Day 1: 96 well plate was seeded with 4000 cells/well and incubated for 24 hours at 37° C. […]
# Day 6: Senescence cells histochemical Staining Kit (Sigma) was used. The growth medium form the cells were aspirated then washed twice with fresh […]. […] 100 μL filtered Fixation Buffer was added per well and the plate was incubated for 6-7 minutes at room temperature. Then, the cells were rinsed 3 times with PBS. 50 μL of the Staining Mixture was added per well and incubated at 37° C. overnight without CO2 (staining is pH dependent). After staining, the Staining Mixture was removed, PBS and Hoechst dye (1 μg/mL) were added. Ten images were taken with Epifluorescence Microscope using the blue filter and 10 images were taken in the brightfield. The images were used to count the total cell number—the positive blue cells were counted in the bright field. The percentage of cells expressing β-galactosidase was calculated.
# Method 1: Mammalian β-Galactosidase Assay Kit (Thermo Scientific) was used. […] The cells were washed once with PBS. 100 μL of the β-Galactosidase Assay Reagent was added to each well and the plate was covered and incubated for 30 minutes at 37° C. without CO2. The absorbance was measured at 405 nm. […]
# Method 2: Assay of a portion of the lysate. […] 25 μL of lysate was removed and use it for Protein Quantification (BCA). […]
# Senescence was quantified according to Example 4. […]
# [5] = system: cyclin D1; assay: Western blot of Cyclin D1, Example 6B; assay type: cell-based; settings: 250 nM, 24 h, compared to control (DMSO)
# Protocol: Cells were plated at a density of 3×10^5 cells/well for 24 hrs. Representative compounds or DMSO alone was then added to the wells for 24 h at 250 nM (note: Compound F was administered at a concentration of 2 μM). Cells were trypsinised, pelleted, washed ×3 in PBS, and lysed using a 2% SDS lysis solution (Sigma—05030).
# Western blot analysis was then carried out to look at Cyclin D1 (Abeam—ab134175), PRK8 (Sigma—P6248), Rb (Abeam—[…]) and GAPDH (Sigma—G9545) levels.
# [6] = system: cyclin D1; assay: Western blot of Cyclin D1 in Mino cells, Example 6C; assay type: cell-based; settings: compared to control (DMSO)
# Protocol: Mino cells have a chromosomal translocation of the Cyclin D gene that increases expression of cyclin D1. Western blot analysis was then carried out to look at Cyclin D1 (Abeam—ab134175) and GAPDH (Sigma—G9545) levels after treatment with Compounds F, S3, 42, and 146.
SMILES,Cyclin D1 expression ([5]; HCT-116),Cyclin D1 expression ([5]; TOV-112),cyclin D expression [6],further results
Cc1ccccc1C(=O)Nc1nc(NC(=O)c2ccccc2C)n(-c2ccc(Cl)cc2)n1 [Compound Q3],–,–,–,tumor growth (tumor volume) [1]: reduce the tumor growth; weight loss or adverse events [2]: No weight loss or any adverse events
CC[C@H](C)[C@H](NC(=O)[C@H]([C@@H](C)CC)N(C)C(C)=O)C(=O)N[C@H](C(=O)N[C@@H](CC(C)C)C(=O)[C@@]1(C)CO1)[C@@H](C)O [epoxomicin],–,–,–,ubiquitinated proteins (FK-2 antibody) [3]: overall increase of ubiquitinated proteins
"CC(=O)c1c(C)c2cnc(Nc3ccc(N4CCNCC4)cn3)nc2n(C2CCCC2)c1=O [palbociclib, reference compound]",–,–,–,apoptosis or other cell death [4]: No apoptosis or other cell death was observed
Cc1ccccc1C(=O)Nc1nc(-c2ncccc2C)nn1-c1cccc(F)c1 [Compound 146],reduction of Cyclin D1 expression,reduction of Cyclin D1 expression,appreciably reduce Cyclin D expression,–
Cc1ccccc1C(=O)Nc1nc(-c2ncccc2C)nn1-c1ccccc1 [Compound S3],reduction of Cyclin D1 expression,reduction of Cyclin D1 expression,appreciably reduce Cyclin D expression,–
